Results: ChEMBL document CHEMBL3991601, “The target landscape of clinical kinase drugs” (Science, 2017)
Active and inactive are the calls of the source. For most assays here, no stated cut-off is given here; in the data, actives have a measured Kd and inactives only a lower limit.

What was measured:
[1] = biological target: U5 small nuclear ribonucleoprotein 200 kDa helicase (Homo sapiens, UniProt O75643)
[2] = biological target: Tyrosine-protein kinase SYK (Homo sapiens, UniProt P43405)
[3] = biological target: Tyrosine-protein kinase Fer (Homo sapiens, UniProt P16591)
Sequence of Tyrosine-protein kinase Fer (P16591 whole entry): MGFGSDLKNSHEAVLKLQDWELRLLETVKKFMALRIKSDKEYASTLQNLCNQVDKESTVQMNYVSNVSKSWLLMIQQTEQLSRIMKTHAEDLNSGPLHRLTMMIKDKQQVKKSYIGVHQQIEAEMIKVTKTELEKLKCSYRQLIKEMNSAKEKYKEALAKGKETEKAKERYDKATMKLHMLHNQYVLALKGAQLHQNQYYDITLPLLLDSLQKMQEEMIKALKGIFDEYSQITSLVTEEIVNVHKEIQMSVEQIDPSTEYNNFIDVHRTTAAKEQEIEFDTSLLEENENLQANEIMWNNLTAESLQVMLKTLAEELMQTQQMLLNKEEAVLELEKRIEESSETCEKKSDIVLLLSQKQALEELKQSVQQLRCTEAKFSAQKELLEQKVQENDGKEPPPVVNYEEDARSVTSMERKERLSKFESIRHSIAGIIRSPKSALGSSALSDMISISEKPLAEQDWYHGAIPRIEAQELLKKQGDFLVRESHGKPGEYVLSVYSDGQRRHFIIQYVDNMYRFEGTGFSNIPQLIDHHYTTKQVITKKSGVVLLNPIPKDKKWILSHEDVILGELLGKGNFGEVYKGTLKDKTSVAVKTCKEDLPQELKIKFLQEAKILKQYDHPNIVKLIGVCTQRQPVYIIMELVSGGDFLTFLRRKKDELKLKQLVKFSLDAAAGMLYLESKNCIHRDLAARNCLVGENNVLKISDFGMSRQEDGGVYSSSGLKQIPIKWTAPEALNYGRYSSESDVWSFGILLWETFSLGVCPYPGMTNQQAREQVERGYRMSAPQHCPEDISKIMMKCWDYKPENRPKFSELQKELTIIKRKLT

[4] = biological target: RAC-alpha serine/threonine-protein kinase (Homo sapiens, UniProt P31749)
Sequence of RAC-alpha serine/threonine-protein kinase (P31749 whole entry, canonical isoform): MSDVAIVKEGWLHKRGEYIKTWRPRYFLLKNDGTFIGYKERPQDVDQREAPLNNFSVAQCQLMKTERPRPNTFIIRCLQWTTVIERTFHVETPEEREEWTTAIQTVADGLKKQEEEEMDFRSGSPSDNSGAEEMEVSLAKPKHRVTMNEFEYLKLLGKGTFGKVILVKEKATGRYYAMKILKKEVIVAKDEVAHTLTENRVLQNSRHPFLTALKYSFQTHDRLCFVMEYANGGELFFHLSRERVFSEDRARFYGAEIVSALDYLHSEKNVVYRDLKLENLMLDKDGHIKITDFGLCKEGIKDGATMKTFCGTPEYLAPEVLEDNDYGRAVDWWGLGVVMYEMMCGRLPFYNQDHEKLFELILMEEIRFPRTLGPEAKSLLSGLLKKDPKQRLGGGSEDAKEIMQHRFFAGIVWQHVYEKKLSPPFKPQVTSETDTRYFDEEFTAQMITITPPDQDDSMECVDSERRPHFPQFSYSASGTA

[5] = biological target: T1, Phosphorylase b kinase gamma catalytic chain, liver/testis isoform (Homo sapiens, UniProt P15735)
T1 sequence (P15735 whole entry): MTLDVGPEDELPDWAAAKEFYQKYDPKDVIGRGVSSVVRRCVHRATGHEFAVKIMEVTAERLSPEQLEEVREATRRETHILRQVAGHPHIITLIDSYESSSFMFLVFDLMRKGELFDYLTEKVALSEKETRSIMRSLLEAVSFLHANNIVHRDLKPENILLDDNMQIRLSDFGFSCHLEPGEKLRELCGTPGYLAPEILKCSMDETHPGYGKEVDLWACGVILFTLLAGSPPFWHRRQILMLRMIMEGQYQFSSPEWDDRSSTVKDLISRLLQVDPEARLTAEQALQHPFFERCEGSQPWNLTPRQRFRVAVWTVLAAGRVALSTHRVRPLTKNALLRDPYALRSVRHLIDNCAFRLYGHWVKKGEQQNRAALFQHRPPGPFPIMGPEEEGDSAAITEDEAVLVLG

[6] = biological target: T2, Serine/threonine-protein kinase 4 (Homo sapiens, UniProt Q13043)
T2 sequence (Q13043 whole entry): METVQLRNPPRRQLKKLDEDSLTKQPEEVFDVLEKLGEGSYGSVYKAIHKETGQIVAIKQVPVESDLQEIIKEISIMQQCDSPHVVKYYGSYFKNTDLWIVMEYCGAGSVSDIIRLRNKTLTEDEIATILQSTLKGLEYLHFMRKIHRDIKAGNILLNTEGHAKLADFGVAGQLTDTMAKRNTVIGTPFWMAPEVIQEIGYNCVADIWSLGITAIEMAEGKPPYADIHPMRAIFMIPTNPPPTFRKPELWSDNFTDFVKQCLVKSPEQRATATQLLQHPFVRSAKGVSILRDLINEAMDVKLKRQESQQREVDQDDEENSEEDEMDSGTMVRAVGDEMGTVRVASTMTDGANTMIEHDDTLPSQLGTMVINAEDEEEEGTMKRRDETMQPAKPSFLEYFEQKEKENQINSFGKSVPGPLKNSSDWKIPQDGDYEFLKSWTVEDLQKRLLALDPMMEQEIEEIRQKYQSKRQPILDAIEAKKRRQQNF

[7] = biological target: T3, Phenylalanine--tRNA ligase beta subunit (Homo sapiens, UniProt Q9NSD9)
T3 sequence (Q9NSD9 whole entry): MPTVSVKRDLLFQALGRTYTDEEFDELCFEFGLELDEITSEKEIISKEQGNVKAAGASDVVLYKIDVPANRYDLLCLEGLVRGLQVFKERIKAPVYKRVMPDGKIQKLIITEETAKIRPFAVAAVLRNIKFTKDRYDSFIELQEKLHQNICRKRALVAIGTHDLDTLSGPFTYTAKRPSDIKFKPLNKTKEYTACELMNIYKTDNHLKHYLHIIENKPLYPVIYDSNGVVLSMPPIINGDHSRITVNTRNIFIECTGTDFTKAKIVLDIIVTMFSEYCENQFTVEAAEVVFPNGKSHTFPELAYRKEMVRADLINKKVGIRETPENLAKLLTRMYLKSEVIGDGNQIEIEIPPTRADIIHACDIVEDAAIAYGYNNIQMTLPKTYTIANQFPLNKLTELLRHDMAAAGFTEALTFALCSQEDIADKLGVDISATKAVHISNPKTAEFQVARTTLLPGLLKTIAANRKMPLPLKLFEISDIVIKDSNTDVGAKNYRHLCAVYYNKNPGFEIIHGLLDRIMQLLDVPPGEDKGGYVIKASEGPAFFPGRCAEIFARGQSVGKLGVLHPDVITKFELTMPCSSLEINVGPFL

[8] = biological target: Serine/threonine-protein kinase 10 (Homo sapiens, UniProt O94804)
Sequence of Serine/threonine-protein kinase 10 (O94804 whole entry): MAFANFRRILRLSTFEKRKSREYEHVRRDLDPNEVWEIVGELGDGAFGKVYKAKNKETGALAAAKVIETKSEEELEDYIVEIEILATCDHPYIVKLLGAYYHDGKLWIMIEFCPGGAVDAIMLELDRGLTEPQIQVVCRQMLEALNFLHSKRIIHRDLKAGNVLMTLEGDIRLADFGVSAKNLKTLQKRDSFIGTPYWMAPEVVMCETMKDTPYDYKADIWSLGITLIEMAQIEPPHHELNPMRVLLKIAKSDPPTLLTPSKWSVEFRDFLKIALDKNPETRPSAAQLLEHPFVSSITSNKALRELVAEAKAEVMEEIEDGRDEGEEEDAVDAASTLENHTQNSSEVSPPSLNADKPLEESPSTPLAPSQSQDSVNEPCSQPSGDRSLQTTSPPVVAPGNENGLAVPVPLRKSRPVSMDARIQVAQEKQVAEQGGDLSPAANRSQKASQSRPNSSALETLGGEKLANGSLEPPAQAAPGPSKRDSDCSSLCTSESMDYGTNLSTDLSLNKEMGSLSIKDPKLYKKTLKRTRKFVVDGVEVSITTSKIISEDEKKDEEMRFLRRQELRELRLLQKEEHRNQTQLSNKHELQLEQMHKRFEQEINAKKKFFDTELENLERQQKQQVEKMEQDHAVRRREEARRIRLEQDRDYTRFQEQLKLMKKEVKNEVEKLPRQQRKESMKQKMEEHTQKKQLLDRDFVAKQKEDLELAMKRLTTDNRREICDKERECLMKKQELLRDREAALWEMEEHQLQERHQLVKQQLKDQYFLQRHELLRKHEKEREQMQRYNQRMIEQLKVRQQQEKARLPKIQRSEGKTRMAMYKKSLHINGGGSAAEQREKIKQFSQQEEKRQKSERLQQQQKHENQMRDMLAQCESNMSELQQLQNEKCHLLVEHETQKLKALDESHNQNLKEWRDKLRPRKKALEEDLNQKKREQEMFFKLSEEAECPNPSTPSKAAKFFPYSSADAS

[9] = biological target: STE20-like serine/threonine-protein kinase (Homo sapiens, UniProt Q9H2G2)
Sequence of STE20-like serine/threonine-protein kinase (Q9H2G2 whole entry): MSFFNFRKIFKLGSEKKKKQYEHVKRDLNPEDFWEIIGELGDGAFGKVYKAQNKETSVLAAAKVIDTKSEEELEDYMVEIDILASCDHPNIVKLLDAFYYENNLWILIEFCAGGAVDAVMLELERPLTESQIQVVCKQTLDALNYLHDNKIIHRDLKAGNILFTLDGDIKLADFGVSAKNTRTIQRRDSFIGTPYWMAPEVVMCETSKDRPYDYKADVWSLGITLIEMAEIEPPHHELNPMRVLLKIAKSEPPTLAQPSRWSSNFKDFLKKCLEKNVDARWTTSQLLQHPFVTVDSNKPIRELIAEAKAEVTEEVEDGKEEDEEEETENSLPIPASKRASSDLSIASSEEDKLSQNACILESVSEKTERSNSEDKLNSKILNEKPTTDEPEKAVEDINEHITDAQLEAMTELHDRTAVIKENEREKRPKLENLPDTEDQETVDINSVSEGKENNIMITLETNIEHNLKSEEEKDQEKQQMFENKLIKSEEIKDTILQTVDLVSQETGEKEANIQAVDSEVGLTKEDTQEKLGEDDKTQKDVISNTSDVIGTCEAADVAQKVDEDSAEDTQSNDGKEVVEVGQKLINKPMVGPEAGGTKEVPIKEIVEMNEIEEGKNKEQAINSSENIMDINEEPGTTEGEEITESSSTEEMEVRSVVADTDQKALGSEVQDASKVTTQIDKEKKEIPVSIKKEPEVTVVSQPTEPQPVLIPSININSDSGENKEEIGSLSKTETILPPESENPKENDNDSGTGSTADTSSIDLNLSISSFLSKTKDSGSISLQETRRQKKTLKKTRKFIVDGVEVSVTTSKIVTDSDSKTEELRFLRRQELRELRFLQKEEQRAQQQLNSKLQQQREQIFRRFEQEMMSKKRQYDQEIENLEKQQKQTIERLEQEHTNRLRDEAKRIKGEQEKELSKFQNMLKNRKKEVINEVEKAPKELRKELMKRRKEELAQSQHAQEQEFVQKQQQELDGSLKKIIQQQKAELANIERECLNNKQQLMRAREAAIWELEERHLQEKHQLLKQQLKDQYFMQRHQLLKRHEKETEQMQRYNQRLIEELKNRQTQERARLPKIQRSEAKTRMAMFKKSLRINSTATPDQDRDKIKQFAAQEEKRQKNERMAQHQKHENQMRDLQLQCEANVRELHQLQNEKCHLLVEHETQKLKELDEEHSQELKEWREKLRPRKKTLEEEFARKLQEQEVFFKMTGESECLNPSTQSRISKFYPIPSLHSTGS

[10] = biological target: T4, Serine/threonine-protein kinase TAO1 (Homo sapiens, UniProt Q7L7X3)
T4 sequence (Q7L7X3 whole entry): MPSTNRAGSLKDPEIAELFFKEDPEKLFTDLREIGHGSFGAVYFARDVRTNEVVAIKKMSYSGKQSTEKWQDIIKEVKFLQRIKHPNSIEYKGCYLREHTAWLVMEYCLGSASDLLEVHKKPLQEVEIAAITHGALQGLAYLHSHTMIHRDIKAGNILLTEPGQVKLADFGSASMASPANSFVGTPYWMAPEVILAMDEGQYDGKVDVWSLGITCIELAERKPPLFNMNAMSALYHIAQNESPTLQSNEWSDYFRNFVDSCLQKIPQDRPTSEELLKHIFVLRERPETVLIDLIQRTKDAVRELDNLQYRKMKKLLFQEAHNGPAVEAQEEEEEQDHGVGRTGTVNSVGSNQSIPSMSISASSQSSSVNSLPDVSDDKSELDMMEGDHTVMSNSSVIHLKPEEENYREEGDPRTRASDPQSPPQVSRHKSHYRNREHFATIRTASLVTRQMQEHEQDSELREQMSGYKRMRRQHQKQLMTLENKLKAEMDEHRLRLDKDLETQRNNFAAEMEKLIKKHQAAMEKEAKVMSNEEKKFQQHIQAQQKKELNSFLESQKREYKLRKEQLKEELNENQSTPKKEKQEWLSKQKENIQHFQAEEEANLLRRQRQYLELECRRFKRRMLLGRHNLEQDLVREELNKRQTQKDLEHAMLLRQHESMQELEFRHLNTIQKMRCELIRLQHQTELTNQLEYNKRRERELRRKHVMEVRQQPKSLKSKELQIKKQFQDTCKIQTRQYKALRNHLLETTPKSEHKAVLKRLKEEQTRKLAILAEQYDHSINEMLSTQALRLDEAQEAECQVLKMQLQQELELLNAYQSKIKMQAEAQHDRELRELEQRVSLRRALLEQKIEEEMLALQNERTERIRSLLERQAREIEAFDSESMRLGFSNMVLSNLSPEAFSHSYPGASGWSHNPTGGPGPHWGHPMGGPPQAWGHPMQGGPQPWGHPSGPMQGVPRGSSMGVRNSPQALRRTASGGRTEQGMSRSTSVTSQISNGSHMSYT

[11] = biological target: Mitogen-activated protein kinase 9 (Homo sapiens, UniProt P45984)
Sequence of Mitogen-activated protein kinase 9 (P45984 whole entry): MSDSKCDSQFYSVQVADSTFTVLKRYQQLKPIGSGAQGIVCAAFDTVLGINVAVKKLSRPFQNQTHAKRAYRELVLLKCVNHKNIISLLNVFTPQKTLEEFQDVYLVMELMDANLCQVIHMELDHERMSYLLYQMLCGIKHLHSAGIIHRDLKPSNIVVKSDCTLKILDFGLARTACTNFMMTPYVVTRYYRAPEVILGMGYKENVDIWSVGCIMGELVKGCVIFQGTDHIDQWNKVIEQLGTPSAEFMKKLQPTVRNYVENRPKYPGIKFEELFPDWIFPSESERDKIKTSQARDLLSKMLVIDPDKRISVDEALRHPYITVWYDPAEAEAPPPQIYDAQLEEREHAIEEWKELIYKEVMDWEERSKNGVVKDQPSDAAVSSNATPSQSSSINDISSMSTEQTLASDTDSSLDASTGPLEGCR

[12] = biological target: Mitogen-activated protein kinase 10 (Homo sapiens, UniProt P53779)
Sequence of Mitogen-activated protein kinase 10 (P53779 whole entry): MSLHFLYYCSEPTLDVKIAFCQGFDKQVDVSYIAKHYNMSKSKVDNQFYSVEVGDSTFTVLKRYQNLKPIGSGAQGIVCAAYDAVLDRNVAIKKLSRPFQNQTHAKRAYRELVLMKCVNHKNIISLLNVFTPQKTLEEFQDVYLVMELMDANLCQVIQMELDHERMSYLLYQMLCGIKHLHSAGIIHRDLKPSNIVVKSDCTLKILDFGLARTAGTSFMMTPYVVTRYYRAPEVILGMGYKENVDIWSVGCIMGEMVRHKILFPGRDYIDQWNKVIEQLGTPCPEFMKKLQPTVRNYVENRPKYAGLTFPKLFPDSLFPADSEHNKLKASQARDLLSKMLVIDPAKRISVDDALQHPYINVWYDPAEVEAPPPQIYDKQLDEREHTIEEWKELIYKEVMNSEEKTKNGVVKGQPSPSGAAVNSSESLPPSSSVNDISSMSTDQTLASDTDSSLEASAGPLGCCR

| Kd [1] | Kd [2] | Kd [3] | Kd [4] | Kd [5] | Kd [7] | Kd [8] | Kd [9] | Kd [10] | Kd [11] | SMILES | Kd [6] | Kd [12] |
| --- | --- | --- | --- | --- | --- | --- | --- | --- | --- | --- | --- | --- |
| > 30 µM (inactive) | > 30 µM (inactive) | > 30 µM (inactive) | > 30 µM (inactive) | > 30 µM (inactive) | > 30 µM (inactive) | > 30 µM (inactive) | > 30 µM (inactive) | – | – | CCN(CCCOc1ccc2c(Nc3cc(CC(=O)Nc4cccc(F)c4)n[nH]3)ncnc2c1)CCOP(=O)(O)O [BARASERTIB] | > 30 µM (inactive) | – |
| > 30 µM (inactive) | – | – | – | – | > 30 µM (inactive) | – | – | – | – | COc1cc2c(Oc3ccc4[nH]c(C)cc4c3F)ncnc2cc1OCCCN1CCCC1 [CEDIRANIB] | – | – |
| – | – | – | – | – | 0.006 µM | – | – | – | – | COc1cc2c(N3CCN(C(=O)Nc4ccc(OC(C)C)cc4)CC3)ncnc2cc1OCCCN1CCCCC1 [TANDUTINIB] | – | – |
| > 30 µM (inactive) | > 30 µM (inactive) | > 30 µM (inactive) | > 30 µM (inactive) | > 30 µM (inactive) | > 30 µM (inactive) | > 30 µM (inactive) | > 30 µM (inactive) | > 30 µM (inactive) | > 30 µM (inactive) | S=C(NCc1ccc2c(c1)OCO2)N1CCN(c2ncnc3c2oc2ccccc23)CC1 [AMUVATINIB] | > 30 µM (inactive) | – |
| > 30 µM (inactive) | > 30 µM (inactive) | > 30 µM (inactive) | > 30 µM (inactive) | > 30 µM (inactive) | > 30 µM (inactive) | 2.47 µM (active) | > 30 µM (inactive) | – | > 30 µM (inactive) | CCN1CCN(Cc2ccc(Nc3ncc(F)c(-c4cc(F)c5nc(C)n(C(C)C)c5c4)n3)nc2)CC1 [ABEMACICLIB] | > 30 µM (inactive) | – |
| > 30 µM (inactive) | – | – | – | – | > 30 µM (inactive) | – | > 30 µM (inactive) | – | – | CC1(C)CNc2cc(NC(=O)c3cccnc3NCc3ccncc3)ccc21 [MOTESANIB] | – | – |
| > 30 µM (inactive) | – | – | – | – | > 30 µM (inactive) | – | – | – | – | Cn1cnc2c(F)c(Nc3ccc(Br)cc3Cl)c(C(=O)NOCCO)cc21 [SELUMETINIB] | – | – |
| > 30 µM (inactive) | > 30 µM (inactive) | > 30 µM (inactive) | > 30 µM (inactive) | > 30 µM (inactive) | > 30 µM (inactive) | > 30 µM (inactive) | > 30 µM (inactive) | > 30 µM (inactive) | – | O[C@H]1CC[C@H](Nc2ncc3nc(Nc4c(F)cc(F)cc4F)n([C@H]4CCOC4)c3n2)CC1 [TANZISERTIB] | > 30 µM (inactive) | – |
| > 30 µM (inactive) | – | – | – | – | > 30 µM (inactive) | – | – | – | – | C[C@@]1(C(=O)Nc2ccc(F)nc2)CCCN1c1nc(Nc2cc(C3CC3)n[nH]2)c2cccn2n1 [BMS-754807] | – | – |
| > 30 µM (inactive) | > 30 µM (inactive) | > 30 µM (inactive) | – | > 30 µM (inactive) | > 30 µM (inactive) | > 30 µM (inactive) | > 30 µM (inactive) | – | – | Cn1c(=O)n(-c2ccc(C(C)(C)C#N)cc2)c2c3cc(-c4cnc5ccccc5c4)ccc3ncc21 [DACTOLISIB] | > 30 µM (inactive) | – |
| > 30 µM (inactive) | – | – | – | – | > 30 µM (inactive) | – | – | – | – | CN(C)C/C=C/C(=O)Nc1cc2c(Nc3ccc(F)c(Cl)c3)ncnc2cc1O[C@H]1CCOC1 [AFATINIB] | – | – |
| > 30 µM (inactive) | > 30 µM (inactive) | > 30 µM (inactive) | > 30 µM (inactive) | > 30 µM (inactive) | > 30 µM (inactive) | > 30 µM (inactive) | > 30 µM (inactive) | > 30 µM (inactive) | – | NC(=O)c1ccc(N(C(N)=O)c2c(F)cccc2F)nc1-c1ccc(F)cc1F [VX-702] | > 30 µM (inactive) | – |

| SMILES | Kd [1] | Kd [2] | Kd [3] | Kd [4] | Kd [5] | Kd [7] | Kd [8] | Kd [9] | Kd [10] | Kd [11] | Kd [6] | Kd [12] |
| --- | --- | --- | --- | --- | --- | --- | --- | --- | --- | --- | --- | --- |
| N#CCNC(=O)c1ccc(-c2ccnc(Nc3ccc(N4CCOCC4)cc3)n2)cc1 [MOMELOTINIB] | > 30 µM (inactive) | > 30 µM (inactive) | > 30 µM (inactive) | > 30 µM (inactive) | > 30 µM (inactive) | > 30 µM (inactive) | – | – | > 30 µM (inactive) | – | > 30 µM (inactive) | – |
| C=CCn1c(=O)c2cnc(Nc3ccc(N4CCN(C)CC4)cc3)nc2n1-c1cccc(C(C)(C)O)n1 [ADAVOSERTIB] | > 30 µM (inactive) | – | > 30 µM (inactive) | > 30 µM (inactive) | > 30 µM (inactive) | > 30 µM (inactive) | > 30 µM (inactive) | > 30 µM (inactive) | – | – | > 30 µM (inactive) | > 30 µM (inactive) |
| C[C@]1(O)C[C@@H](c2nc(-c3ccc4ccc(-c5ccccc5)nc4c3)c3c(N)nccn32)C1 [LINSITINIB] | > 30 µM (inactive) | – | – | – | – | > 30 µM (inactive) | > 30 µM (inactive) | – | – | – | > 30 µM (inactive) | > 30 µM (inactive) |
| O=S(=O)(c1cccc2cnccc12)N1CCCNCC1 [FASUDIL] | – | > 30 µM (inactive) | > 30 µM (inactive) | – | > 30 µM (inactive) | > 30 µM (inactive) | > 30 µM (inactive) | – | – | – | > 30 µM (inactive) | > 30 µM (inactive) |
| CN(c1ncccc1CNc1nc(Nc2ccc3c(c2)CC(=O)N3)ncc1C(F)(F)F)S(C)(=O)=O [PF-00562271] | > 30 µM (inactive) | – | – | – | – | > 30 µM (inactive) | > 30 µM (inactive) | – | – | – | 5.93 µM (active) | – |
| CN1CCN(c2nc(C3=C(c4c[nH]c5ccccc45)C(=O)NC3=O)c3ccccc3n2)CC1 [SOTRASTAURIN] | > 30 µM (inactive) | > 30 µM (inactive) | > 30 µM (inactive) | > 30 µM (inactive) | > 30 µM (inactive) | > 30 µM (inactive) | > 30 µM (inactive) | > 30 µM (inactive) | – | > 30 µM (inactive) | > 30 µM (inactive) | > 30 µM (inactive) |
